Among the test systems are SF-295 CNS; HOP-62 NSCLC; IGROV1 ovarian; SNB-19 CNS; SF-268 CNS; NCI/ADR-RES ovarian; SW-620 colon; SK-MEL-2 melanoma; OVCAR-5 ovarian; SNB-75 CNS.
Holding throughout (experiment): NCI tumour cell line growth inhibition, 48 h

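Five compound concentrations were applied to cells in 96-well plates for 48 hours; endpoints were derived by simple linear interpolation of the resulting dose-response curve. Abbreviation: GI50, concentration required for 50% inhibition of growth. At the TGI there is no net growth.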 Bounds are passed on as bounds.

Regarding `CC(=O)O[C@H]1CCC2[C@@H]3CCC4NC(=O)C(C#N)C[C@]4(C)C3CC[C@@]21C` (stereo partly drawn), the TGI with SF-295 CNS, with HOP-62 NSCLC, in the experiment with IGROV1 ovarian, with SNB-19 CNS, in the experiment with SF-268 CNS and in the experiment on NCI/ADR-RES ovarian was more than 10 µM each time. The TGI in the experiment with SW-620 colon, in the experiment with SK-MEL-2 melanoma and with OVCAR-5 ovarian was more than 10 µM in each case.

With `O=C1/C(=C/c2ccc(O)cc2)CCC1CNc1ccccc1` (stereo not drawn), the TGI in the experiment on SF-295 CNS turned out to be 29.5 µM; with HOP-62 NSCLC, 36.3 µM; in the experiment with IGROV1 ovarian, 25.3 µM; in the experiment on SNB-19 CNS it was 30.1 µM; with SNB-75 CNS it was 41.2 µM; in the experiment with SF-268 CNS, 28.2 µM. The TGI in the experiment with NCI/ADR-RES ovarian worked out at 37.1 µM; in the experiment with SW-620 colon, 7.11 µM; with OVCAR-5 ovarian it was 31.6 µM.

`CC1(C)C=[N+]([O-])C(C)(C)N1O`: the TGI in the experiment with SF-295 CNS, with HOP-62 NSCLC, in the experiment on SNB-19 CNS, in the experiment with SF-268 CNS, with NCI/ADR-RES ovarian and with SW-620 colon was more than 10 µM in each case. For the same compound, the TGI in the experiment on SK-MEL-2 melanoma and in the experiment on OVCAR-5 ovarian was more than 10 µM throughout.

In the case of `O=c1c(O)cccn1C1OC(CO)C(O)C1O` (stereo not drawn), the TGI in the experiment with IGROV1 ovarian, with SNB-19 CNS, in the experiment on SNB-75 CNS, with SF-268 CNS, with SK-MEL-2 melanoma and in the experiment with OVCAR-5 ovarian was more than 100 µM throughout.

Turning to `C[C@]12CC[C@H]3[C@@H](CCC4=C(Br)C(=O)C=C[C@@]43O)[C@@H]1CCC2=O`, the TGI in the experiment with SF-295 CNS, with HOP-62 NSCLC, in the experiment with IGROV1 ovarian, in the experiment with SNB-19 CNS, in the experiment with SF-268 CNS and in the experiment on NCI/ADR-RES ovarian was more than 100 µM each time. In addition, the TGI with SW-620 colon, in the experiment with SK-MEL-2 melanoma and in the experiment on OVCAR-5 ovarian was more than 100 µM in each case.

On to `CC(=O)NC(=O)NC1=NCCC(=O)N1CCc1c[nH]c2ccccc12`, for which the TGI in the experiment with SF-295 CNS, with HOP-62 NSCLC, in the experiment on IGROV1 ovarian, with SNB-19 CNS, in the experiment on SF-268 CNS and in the experiment on NCI/ADR-RES ovarian was more than 100 µM in each case. The TGI with SW-620 colon, with SK-MEL-2 melanoma and with OVCAR-5 ovarian was more than 100 µM throughout.

For the compound `O=c1oc2cccnc2n1CCCCN1CCN(c2ccccc2)CC1`, the TGI in the experiment on SF-295 CNS, in the experiment on HOP-62 NSCLC, with IGROV1 ovarian, in the experiment on SNB-19 CNS, in the experiment on SF-268 CNS and in the experiment on NCI/ADR-RES ovarian was more than 100 µM in each case. Moreover, the TGI with SW-620 colon, with SK-MEL-2 melanoma and with OVCAR-5 ovarian was more than 100 µM throughout.

As to `O=[N+]([O-])c1ccc2c(c1)n1c(N3CCCC3)[n+]3ccccc3c1c1c3cccc[n+]3c(N3CCCC3)n21`, the TGI in the experiment on SF-295 CNS was more than 100 µM; in the experiment with IGROV1 ovarian, more than 100 µM; with SNB-19 CNS, more than 100 µM; in the experiment with SNB-75 CNS it was more than 100 µM; in the experiment with SF-268 CNS it was 42.6 µM; with NCI/ADR-RES ovarian it was more than 100 µM. The TGI in the experiment with SW-620 colon, in the experiment on SK-MEL-2 melanoma and with OVCAR-5 ovarian was more than 100 µM throughout.

As to `COC(=O)[C@@]1(C)CCC[C@]2(C(=O)O)C3Cc4occc4[C@H](C)[C@@H]3CCC21` (stereo partly drawn), the TGI with SF-295 CNS was more than 100 µM; with HOP-62 NSCLC it was more than 100 µM; in the experiment with IGROV1 ovarian it was more than 100 µM; in the experiment with SNB-19 CNS, more than 100 µM; with SF-268 CNS it was more than 100 µM; in the experiment with NCI/ADR-RES ovarian it was 82 µM. The TGI in the experiment with SW-620 colon, in the experiment with SK-MEL-2 melanoma and with OVCAR-5 ovarian was more than 100 µM each time.

Turning to `CC(C)(Cc1ccccc1)N1C(=O)N1C(C)(C)Cc1ccccc1`, the TGI with IGROV1 ovarian, in the experiment with SNB-19 CNS, in the experiment on SNB-75 CNS, in the experiment on SF-268 CNS, in the experiment on NCI/ADR-RES ovarian and with SW-620 colon was more than 100 µM each time. Besides, the TGI was found to be 48.4 µM in the experiment on SK-MEL-2 melanoma and 83.1 µM in the experiment with OVCAR-5 ovarian.

Turning to `Cc1nc2c(n1-c1ccccc1)C(=O)c1ccccc1C2=O`, the TGI with SF-295 CNS, with HOP-62 NSCLC, in the experiment on SNB-19 CNS, in the experiment on SNB-75 CNS, in the experiment on SF-268 CNS and with SW-620 colon was more than 100 µM in each case. Besides, the TGI in the experiment with SK-MEL-2 melanoma and in the experiment on OVCAR-5 ovarian was more than 100 µM throughout.

With `NC(=S)NNC(=S)NC(=O)c1ccco1`, the TGI in the experiment with HOP-62 NSCLC, in the experiment with IGROV1 ovarian, in the experiment with SNB-19 CNS, with SNB-75 CNS, in the experiment with SF-268 CNS and in the experiment on NCI/ADR-RES ovarian was more than 10 µM each time. For the same compound, the TGI in the experiment with SW-620 colon, with SK-MEL-2 melanoma and with OVCAR-5 ovarian was more than 10 µM each time.

As to `C[PH+](c1nc2ccccc2nc1[PH+](C)C(C)(C)C)C(C)(C)C.C[PH+](c1nc2ccccc2nc1[PH+](C)C(C)(C)C)C(C)(C)C.[Au+].[Cl-]` (stereo not drawn), the GI50 with SNB-19 CNS was 0.0453 µM; with SNB-75 CNS it was 0.0224 µM; in the experiment on SF-268 CNS, 0.0384 µM; with SW-620 colon it was 0.0356 µM; with SK-MEL-2 melanoma, 0.0318 µM; with OVCAR-5 ovarian it was 0.0441 µM. In addition, the TGI stood at 1.7 µM in the experiment on SNB-19 CNS; 1.34 µM in the experiment with SNB-75 CNS; 1.35 µM in the experiment with SF-268 CNS; 1.18 µM in the experiment on SW-620 colon; 0.0986 µM in the experiment on SK-MEL-2 melanoma; 0.457 µM in the experiment with OVCAR-5 ovarian.

In the case of `COc1cc2c(cc1OC)C(=O)/C(=C/c1ccc(O)cc1)CC2`, the TGI in the experiment on SF-295 CNS, with HOP-62 NSCLC, in the experiment with IGROV1 ovarian, in the experiment on SNB-19 CNS, in the experiment on SF-268 CNS and with NCI/ADR-RES ovarian was more than 10 µM each time. The TGI in the experiment on SW-620 colon, in the experiment on SK-MEL-2 melanoma and with OVCAR-5 ovarian was more than 10 µM throughout.

The record behind these values is PubChem BioAssay (NCI).
